The values that follow are results of earlier work, collected in patent US10857195B2, “Plant extracts for improving sleep” (Kemin Industries, Inc., priority 2014, dated 2020).

The series concerns aging mice. As to conditions: RA administered to aging mice.

Take `O=C(/C=C/c1ccc(O)c(O)c1)O[C@H](Cc1ccc(O)c(O)c1)C(=O)O` [RA, Rosmarinic acid]: the “catalase (CAT) activity in the brain” value was “increased”, the “malondialdehyde (MDA) in the brain” value is “decreasing” and the “superoxide dismutase (SOD) activity in the brain” value is “increased”.
